In ChEMBL document CHEMBL1201862, “PubChem BioAssay data set” (2004):
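48-hour exposure; five concentrations; linearly interpolated endpoints. GI50 is the concentration that inhibits growth by half.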 Activity calls are given as the source filed them. Rule as the data show it: active = GI50 up to about 1.1 µM and inactive = higher.

Legend:
Assay in all cases: DTP human tumour cell line panel, 48 h
M19-MEL = tested on: M19-MEL
NCI-H226 = tested on: NCI-H226
MCF7 = tested on: MCF7
DMS-114 = tested on: DMS-114
SNB-75 = tested on: SNB-75
MOLT-4 = tested on: MOLT-4
K562 = tested on: K562
CAKI-1 = tested on: CAKI-1
DMS-273 = tested on: DMS-273
A549 = tested on: A549
SK-OV-3 = tested on: SK-OV-3
CCRF-CEM = tested on: CCRF-CEM
KM-20L2 = tested on: KM-20L2
HOP-18 = tested on: HOP-18
NCI/ADR-RES = tested on: NCI/ADR-RES
HL-60 = tested on: HL-60
NCI-H23 = tested on: NCI-H23
SF-295 = tested on: SF-295
OVCAR-8 = tested on: OVCAR-8
UACC-62 = tested on: UACC-62
TK-10 = tested on: TK-10
EKVX = tested on: EKVX
HOP-62 = tested on: HOP-62
KM12 = tested on: KM12
SNB-19 = tested on: SNB-19
UACC-257 = tested on: UACC-257
U-251 = tested on: U-251
SNB-78 = tested on: SNB-78
Malme-3M = tested on: Malme-3M
OVCAR-4 = tested on: OVCAR-4
SF-268 = tested on: SF-268
IGROV-1 = tested on: IGROV-1
RXF 393 = tested on: RXF 393
OVCAR-5 = tested on: OVCAR-5
OVCAR-3 = tested on: OVCAR-3
SW-620 = tested on: SW-620
SK-MEL-2 = tested on: SK-MEL-2
HT-29 = tested on: HT-29
SR = tested on: SR
DLD-1 = tested on: DLD-1
SK-MEL-5 = tested on: SK-MEL-5
NCI-H460 = tested on: NCI-H460
HCC 2998 = tested on: HCC 2998
RPMI-8226 = tested on: RPMI-8226
NCI-H522 = tested on: NCI-H522
LXFL 529 = tested on: LXFL 529
786-0 = tested on: 786-0
SK-MEL-28 = tested on: SK-MEL-28
COLO 205 = tested on: COLO 205
SN12C = tested on: SN12C
HCT-116 = tested on: HCT-116
UO-31 = tested on: UO-31
M14 = tested on: M14
ACHN = tested on: ACHN
HCT-15 = tested on: HCT-15
A498 = tested on: A498
HOP-92 = tested on: HOP-92
LOX IMVI = tested on: LOX IMVI

O=C(O)/C=C/c1c[nH]c(=O)[nH]c1=O
GI50 (M19-MEL): > 500 µM (inactive)
GI50 (NCI-H226): 489 µM (inactive)
GI50 (MCF7): > 500 µM (inactive)
GI50 (DMS-114): > 500 µM (inactive)
GI50 (SNB-75): > 500 µM (inactive)
GI50 (MOLT-4): > 281 µM (inactive)
GI50 (K562): > 500 µM (inactive)
GI50 (CAKI-1): > 500 µM (inactive)
GI50 (DMS-273): > 500 µM (inactive)
GI50 (A549): > 500 µM (inactive)
GI50 (SK-OV-3): > 500 µM (inactive)
GI50 (CCRF-CEM): > 316 µM (inactive)
GI50 (KM-20L2): > 500 µM (inactive)
GI50 (HOP-18): > 500 µM (inactive)
GI50 (NCI/ADR-RES): > 344 µM (inactive)
GI50 (HL-60): > 446 µM (inactive)
GI50 (NCI-H23): > 500 µM (inactive)
GI50 (SF-295): > 232 µM (inactive)

C/C=C1\Oc2ccc(OC)cc2S1(=O)=O
GI50 (OVCAR-8): > 100 µM (inactive)
GI50 (UACC-62): > 100 µM (inactive)
GI50 (TK-10): > 100 µM (inactive)
GI50 (M19-MEL): > 100 µM (inactive)
GI50 (EKVX): > 100 µM (inactive)
GI50 (HOP-62): > 100 µM (inactive)
GI50 (NCI-H226): > 100 µM (inactive)
GI50 (KM12): > 100 µM (inactive)
GI50 (SNB-19): > 100 µM (inactive)
GI50 (UACC-257): > 100 µM (inactive)
GI50 (U-251): > 100 µM (inactive)
GI50 (SNB-78): > 100 µM (inactive)
GI50 (Malme-3M): > 100 µM (inactive)
GI50 (OVCAR-4): > 100 µM (inactive)
GI50 (DMS-114): > 100 µM (inactive)
GI50 (SF-268): > 100 µM (inactive)
GI50 (IGROV-1): > 100 µM (inactive)
GI50 (RXF 393): > 100 µM (inactive)
GI50 (SNB-75): > 100 µM (inactive)
GI50 (MOLT-4): > 100 µM (inactive)
GI50 (OVCAR-5): > 100 µM (inactive)
GI50 (OVCAR-3): > 100 µM (inactive)
GI50 (K562): > 100 µM (inactive)
GI50 (CAKI-1): > 100 µM (inactive)
GI50 (SW-620): > 100 µM (inactive)
GI50 (SK-MEL-2): > 100 µM (inactive)
GI50 (DMS-273): > 100 µM (inactive)
GI50 (A549): > 100 µM (inactive)
GI50 (SK-OV-3): > 100 µM (inactive)
GI50 (HT-29): > 100 µM (inactive)
GI50 (SR): > 100 µM (inactive)
GI50 (DLD-1): > 100 µM (inactive)
GI50 (SK-MEL-5): > 100 µM (inactive)
GI50 (NCI-H460): > 100 µM (inactive)
GI50 (HCC 2998): > 100 µM (inactive)
GI50 (RPMI-8226): > 100 µM (inactive)
GI50 (NCI-H522): > 100 µM (inactive)
GI50 (CCRF-CEM): > 100 µM (inactive)
GI50 (KM-20L2): > 100 µM (inactive)
GI50 (LXFL 529): > 100 µM (inactive)
GI50 (786-0): > 100 µM (inactive)
GI50 (SK-MEL-28): > 100 µM (inactive)
GI50 (COLO 205): > 100 µM (inactive)
GI50 (HOP-18): > 100 µM (inactive)
GI50 (SN12C): > 100 µM (inactive)
GI50 (HL-60): > 100 µM (inactive)
GI50 (HCT-116): > 100 µM (inactive)
GI50 (UO-31): > 100 µM (inactive)
GI50 (NCI-H23): > 100 µM (inactive)
GI50 (M14): > 100 µM (inactive)
GI50 (ACHN): > 100 µM (inactive)
GI50 (HCT-15): > 100 µM
GI50 (SF-295): > 100 µM (inactive)
GI50 (A498): > 100 µM (inactive)
GI50 (HOP-92): > 100 µM (inactive)
GI50 (LOX IMVI): > 100 µM (inactive)

CCOC(=O)NC(=O)c1cn(CCOC(=O)NCCCCCCNC(=O)OCCn2cc(C(=O)NC(=O)OCC)c(=O)[nH]c2=O)c(=O)[nH]c1=O
GI50 (OVCAR-8): > 100 µM (inactive)
GI50 (UACC-62): > 100 µM (inactive)
GI50 (M19-MEL): > 100 µM (inactive)
GI50 (EKVX): > 100 µM (inactive)
GI50 (HOP-62): > 100 µM (inactive)
GI50 (NCI-H226): > 100 µM (inactive)
GI50 (KM12): > 100 µM (inactive)
GI50 (SNB-19): > 100 µM (inactive)
GI50 (UACC-257): > 100 µM (inactive)
GI50 (U-251): > 100 µM (inactive)
GI50 (SNB-78): > 100 µM (inactive)
GI50 (Malme-3M): > 100 µM (inactive)
GI50 (OVCAR-4): > 100 µM (inactive)
GI50 (DMS-114): > 100 µM (inactive)
GI50 (SF-268): > 100 µM (inactive)
GI50 (IGROV-1): > 100 µM (inactive)
GI50 (RXF 393): > 100 µM (inactive)
GI50 (SNB-75): > 100 µM (inactive)
GI50 (MOLT-4): > 100 µM (inactive)
GI50 (OVCAR-3): > 100 µM (inactive)
GI50 (K562): > 100 µM (inactive)
GI50 (CAKI-1): > 100 µM (inactive)
GI50 (SW-620): > 100 µM (inactive)
GI50 (SK-MEL-2): > 100 µM (inactive)
GI50 (DMS-273): > 100 µM (inactive)
GI50 (A549): > 100 µM (inactive)
GI50 (SK-OV-3): > 100 µM (inactive)
GI50 (HT-29): > 100 µM (inactive)
GI50 (DLD-1): > 100 µM (inactive)
GI50 (SK-MEL-5): > 100 µM (inactive)
GI50 (NCI-H460): > 100 µM (inactive)
GI50 (HCC 2998): > 100 µM (inactive)
GI50 (RPMI-8226): > 100 µM (inactive)
GI50 (NCI-H522): > 100 µM (inactive)
GI50 (CCRF-CEM): > 100 µM (inactive)
GI50 (KM-20L2): > 100 µM (inactive)
GI50 (LXFL 529): > 100 µM (inactive)
GI50 (786-0): > 100 µM (inactive)
GI50 (SK-MEL-28): > 100 µM (inactive)
GI50 (COLO 205): > 100 µM (inactive)
GI50 (HOP-18): > 100 µM (inactive)
GI50 (SN12C): > 100 µM (inactive)
GI50 (HL-60): > 100 µM (inactive)
GI50 (HCT-116): > 100 µM (inactive)
GI50 (UO-31): > 100 µM (inactive)
GI50 (M14): > 100 µM (inactive)
GI50 (ACHN): > 100 µM (inactive)
GI50 (HCT-15): > 100 µM
GI50 (SF-295): > 100 µM (inactive)
GI50 (A498): > 100 µM (inactive)
GI50 (LOX IMVI): > 100 µM (inactive)
